# Reference: patent publication US8232273B2, “Heterocyclic compounds and methods of use” (Genentech, Inc., priority 2008, dated 2012)
# Tests used:
# Bcl-xL (GST-Bcl-xL) [1] = biological target: T1, Bcl-xL (GST-Bcl-xL) (Homo sapiens, UniProt Q07817); test: TR-FRET binding assay, competition with F-Bak for the Bcl-xL binding site; settings: values listed in the order of Table 1, read-out: TR-FRET assay results (Ki), Bcl-xL
# Bcl-xL (GST-Bcl-xL) [2] = biological target: T1, Bcl-xL (GST-Bcl-xL); test: AlphaScreen Bcl-xL binding assay, competition with biotinylated Bim peptide; set-up: made in house; settings: values listed in the order of Table 1; read-out: Alphascreen results (IC50) against the Bcl-xL protein
# Source text: The measurement of competition of compounds of the invention with Bim26-mer for a Bcl-2 family protein binding site using an Alpha Screen Bcl-xL binding assay:
# The BH3 proteins AlphaScreen™ assay was used to identify active small molecules Bcl-2 family protein screen, e.g., Bcl-xL, hmMcl-1 screen.
# The beads come in close proximity when the protein and the peptides interact. Donor beads contain a photosensitiser that converts oxygen to an excited form of O2 at an excitation of 680 nm. Energy is transformed from the singlet oxygen and reacts with chemiluminescers on the acceptor bead, resulting in light emission at 520-620 nm. […] With this information, the IC50 of each compound was calculated
# GST-Bcl-xL, GST-hmMcl-1 and biotinylated GST proteins were prepared in-house and were stored as stock solutions at −80° C. The biotinylated-Bak, and biotinylated-Bim peptides were purchased from Auspep and were stored as 500 μM stock solutions in 100% DMSO at −80° C. […] DMSO was purchased from AnalaR.
# Compounds of the invention were prepared as 10 mM stocks with 100% DMSO on the day prior to performing the assay. […] To achieve a final compound concentration of 1 μM, in a separate matrical plate, 28 μL of 100% DMSO and 2 μL of 10 mM compound was added to a well, mixed well, 2 μL of this solution was taken and added to 38 μL of 100% DMSO. 20 μL of this solution was added to the test matrical plate. Several control compounds were included in the test plates. For the control wells 15 μL 100% DMSO only was added to the appropriate wells of each plate. The compound plates were then serially diluted 2 fold using the MiniTrak. Once titrations were complete, the compound plate was immediately covered with a foil seal to prevent evaporation.
# The assay and bead buffers were prepared fresh. Each titrated compound plate was assayed in duplicate. The following volumes were sufficient to run 12 Proxiplates (4 assay plates run in duplicate in each of Bclxl, hmMcl and counter assays)
# Protein and Peptide Preparation; and Assay Performance • 1. The assay and bead buffers were used to prepare the acceptor and donor solutions. ALPHASCREEN™ beads are light sensitive and therefore prepared in a darkened room. 2.5 μL of beads were added per 1 mL of buffer. • 2. The volume of protein or peptide to add was calculated using the following formula:
# V2=Volume of stock protein/Peptide to add to Acceptor/Donor solution • 3. The assay components were prepared as separate Acceptor and Donor Solutions. The Acceptor Solution contained Acceptor beads and target protein, while the Donor Solution contained Donor beads and biotinylated peptide.
# • 4. After the solutions were prepared, they were left to incubate for 30 minutes at room temperature to allow the beads to bind to the protein and the peptide. • 5. 50 μL of Bcl-xL solution, 50 μL of hmMcl-1 solution and 50 μL of biotinylated-GST were added into separate deep wells on an assay plate. A control 50 μL Assay/Bead buffer was added separate well plates (no protein). • 6. 50 μL of Bim solution and 50 μL of Bak solution were added into separate deep well plates. • 7. Transfer 0.3 μL it of sample from the compound plate into each assay plate. • 8. Incubated for 30 mins at RT, then add 5 μL of the Donor solution. After addition of the Donor solution, tapped plates gently and sealed individually with adhesive film. • 9.
# The percent inhibition was calculated using the following equation:
# [formula] • x=RFU obtained after compound treatment • μ^−=RFU obtained for the negative controls (no protein controls) • μ^+=RFU obtained for the positive controls (DMSO vehicle controls)
# T1 sequence (Q07817 whole entry, species assumed): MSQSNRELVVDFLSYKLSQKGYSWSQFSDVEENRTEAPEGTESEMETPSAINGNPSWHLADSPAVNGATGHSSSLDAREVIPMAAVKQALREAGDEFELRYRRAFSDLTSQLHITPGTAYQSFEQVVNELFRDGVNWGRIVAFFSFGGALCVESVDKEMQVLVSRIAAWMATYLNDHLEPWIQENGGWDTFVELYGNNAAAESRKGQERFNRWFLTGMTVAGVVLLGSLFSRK
Structure (SMILES),Ki (Bcl-xL (GST-Bcl-xL) [1]),IC50 (Bcl-xL (GST-Bcl-xL) [2])
"CC(C)(C)OC(=O)Nc1cccc(OCCCc2sc(N3CCc4cccc(C(=O)Nc5nc6ccccc6s5)c4C3)nc2C(=O)O)c1 [Example 5, 2-(8-(benzo[d]thiazol-2-ylcarbamoyl)-3,4-dihydroisoquinolin-2(1H)-yl)-5-(3-(3-(tert-butoxycarbonylamino)phenoxy)propyl)thiazole-4-carboxylic acid]",1 nM,2 nM
"Nc1ccc(OCCCc2sc(N3CCc4cccc(C(=O)Nc5nc6ccccc6s5)c4C3)nc2C(=O)O)cc1 [Example 6, 5-(3-(4-aminophenoxy)propyl)-2-(8-(benzo[d]thiazol-2-ylcarbamoyl)-3,4-dihydroisoquinolin-2(1H)-yl)thiazole-4-carboxylic acid]",0.2 nM,2 nM
"O=C(Nc1nc2ccccc2s1)c1cccc2c1CN(c1nc(C(=O)O)c(CCCn3cccn3)s1)CC2 [Example 7, 5-(3-(1H-pyrazol-1-yl)propyl)-2-(8-(benzo[d]thiazol-2-ylcarbamoyl)-3,4-dihydroisoquinolin-2(1H)-yl)thiazole-4-carboxylic acid]",7 nM,25 nM
"Nc1cccc(OCCCc2sc(N3CCc4cccc(C(=O)Nc5nc6ccccc6s5)c4C3)nc2C(=O)O)c1 [Example 9, 5-(3-(3-aminophenoxy)propyl)-2-(8-(benzo[d]thiazol-2-ylcarbamoyl)-3,4-dihydroisoquinolin-2(1H)-yl)thiazole-4-carboxylic acid]",0.07 nM,0.8 nM
"O=C(Nc1nc2ccccc2s1)c1cccc2c1CN(c1nc(C(=O)O)c(CCCOc3ccncc3)s1)CC2 [Example 10, 2-(8-(benzo[d]thiazol-2-ylcarbamoyl)-3,4-dihydroisoquinolin-2(1H)-yl)-5-(3-(pyridin-4-yloxy)propyl)thiazole-4-carboxylic acid]",0.1 nM,1 nM
"CN(C)c1cccc(OCCCc2sc(N3CCc4cccc(C(=O)Nc5nc6ccccc6s5)c4C3)nc2C(=O)O)c1 [Example 11, 2-(8-(benzo[d]thiazol-2-ylcarbamoyl)-3,4-dihydroisoquinolin-2(1H)-yl)-5-(3-(3-(dimethylamino)phenoxy)propyl)thiazole-4-carboxylic acid]",0.1 nM,2 nM
"O=C(Nc1nc2ccccc2s1)c1cccc2c1CN(c1nc(C(=O)O)c(C#CCO)s1)CC2 [Example 14, 2-(8-(Benzo[d]thiazol-2-ylcarbamoyl)-3,4-dihydroisoquinolin-2(1H)-yl)-5-(3-hydroxyprop-1-ynyl)thiazole-4-carboxylic acid]",6 nM,20 nM
"O=C(Nc1nc2ccccc2s1)c1cccc2c1CN(c1nc(C(=O)O)c(CCCn3cnc4ccccc43)s1)CC2 [Example 15, 5-(3-(1H-benzo[d]imidazol-1-yl)propyl)-2-(8-(benzo[d]thiazol-2-ylcarbamoyl)-3,4-dihydroisoquinolin-2(1H)-yl)thiazole-4-carboxylic acid]",3 nM,10 nM
"O=C(Nc1nc2ccccc2s1)c1cccc2c1CN(c1nc(C(=O)O)c(CCCn3ccnc3)s1)CC2 [Example 16, 5-(3-(1H-imidazol-1-yl)propyl)-2-(8-(benzo[d]thiazol-2-ylcarbamoyl)-3,4-dihydroisoquinolin-2(1H)-yl)thiazole-4-carboxylic acid]",6 nM,10 nM
"O=C(Nc1nc2ccccc2s1)c1cccc2c1CN(c1nc(C(=O)O)c(CCCn3ccc4cccnc43)s1)CC2 [Example 17, 5-(3-(1H-pyrrolo[2,3-b]pyridin-1-yl)propyl)-2-(8-(benzo[d]thiazol-2-ylcarbamoyl)-3,4-dihydroisoquinolin-2(1H)-yl)thiazole-4-carboxylic acid]",4 nM,20 nM
"O=C(Nc1nc2ccccc2s1)c1cccc2c1CN(c1nc(C(=O)O)c(CCCN3CCCC3)s1)CC2 [Example 18, 2-(8-(benzo[d]thiazol-2-ylcarbamoyl)-3,4-dihydroisoquinolin-2(1H)-yl)-5-(3-(pyrrolidin-1-yl)propyl)thiazole-4-carboxylic acid]",4 nM,6 nM
"O=C(Nc1nc2ccccc2s1)c1cccc2c1CN(c1nc(C(=O)O)c(CCCN3CCCCC3)s1)CC2 [Example 20, 2-(8-(benzo[d]thiazol-2-ylcarbamoyl)-3,4-dihydroisoquinolin-2(1H)-yl)-5-(3-(piperidin-1-yl)propyl)thiazole-4-carboxylic acid]",3 nM,8 nM
"O=C(Nc1nc2ccccc2s1)c1cccc2c1CN(c1nc(C(=O)O)c(CCCOc3ccc(-n4ncc5cncnc54)cc3)s1)CC2 [Example 21, 5-(3-(4-(1H-pyrazolo[3,4-d]pyrimidin-1-yl)phenoxy)propyl)-2-(8-(benzo[d]thiazol-2-ylcarbamoyl)-3,4-dihydroisoquinolin-2(1H)-yl)thiazole-4-carboxylic acid]",0.05 nM,0.3 nM
"CC1(C)[C@H]2CC[C@]1(C)C(Oc1ccccc1OCCCc1sc(N3CCc4cccc(C(=O)Nc5nc6ccccc6s5)c4C3)nc1C(=O)O)C2 (stereo partly drawn) [Example 22, 2-(8-(benzo[d]thiazol-2-ylcarbamoyl)-3,4-dihydroisoquinolin-2(1H)-yl)-5-(3-(2-((1S,4S)-1,7,7-trimethylbicyclo[2.2.1]heptan-2-yloxy)phenoxy)propyl)thiazole-4-carboxylic acid]",19 nM,50 nM
"O=C(Nc1nc2ccccc2s1)c1cccc2c1CN(c1nc(C(=O)O)c(CCCOc3ccc4nc(N5CCN(c6ccccn6)CC5)sc4c3)s1)CC2 [Example 23, 2-(8-(benzo[d]thiazol-2-ylcarbamoyl)-3,4-dihydroisoquinolin-2(1H)-yl)-5-(3-(2-(4-(pyridin-2-yl)piperazin-1-yl)benzo[d]thiazol-6-yloxy)propyl)thiazole-4-carboxylic acid]",2 nM,1 nM
"O=C(Nc1nc2ccccc2s1)c1cccc2c1CN(c1nc(C(=O)O)c(CCCOc3ccc(C4(c5ccccc5)CCCC4)cc3)s1)CC2 [Example 24, 2-(8-(benzo[d]thiazol-2-ylcarbamoyl)-3,4-dihydroisoquinolin-2(1H)-yl)-5-(3-(4-(1-phenylcyclopentyl)phenoxy)propyl)thiazole-4-carboxylic acid]",7 nM,27 nM
"N#CC1Cc2cc(OCCCc3sc(N4CCc5cccc(C(=O)Nc6nc7ccccc7s6)c5C4)nc3C(=O)O)ccc21 (centres unmarked) [Example 25, 2-(8-(benzo[d]thiazol-2-ylcarbamoyl)-3,4-dihydroisoquinolin-2(1H)-yl)-5-(3-(1-cyano-1,2-dihydrocyclobutabenzen-4-yloxy)propyl)thiazole-4-carboxylic acid]",0.3 nM,0.9 nM
"N#CC1(c2ccc(OCCCc3sc(N4CCc5cccc(C(=O)Nc6nc7ccccc7s6)c5C4)nc3C(=O)O)cc2)CCC1 [Example 26, 2-(8-(benzo[d]thiazol-2-ylcarbamoyl)-3,4-dihydroisoquinolin-2(1H)-yl)-5-(3-(4-(1-cyanocyclobutyl)phenoxy)propyl)thiazole-4-carboxylic acid]",3 nM,5 nM
"O=C(Nc1nc2ccccc2s1)c1cccc2c1CN(c1nc(C(=O)O)c(CCCOc3ccc4c5c3CCCN5CCC4)s1)CC2 [Example 27, 2-(8-(benzo[d]thiazol-2-ylcarbamoyl)-3,4-dihydroisoquinolin-2(1H)-yl)-5-(3-(1,2,3,5,6,7-hexahydropyrido[3,2,1-ij]quinolin-8-yloxy)propyl)thiazole-4-carboxylic acid]",1 nM,7 nM
